Laboratory results from patent EP4603105A1, “PHARMACEUTICAL COMPOSITION CONTAINING CYCLIC COMPOUND HAVING SELECTIVE KRAS INHIBITORY EFFECT AGAINST HRAS AND NRAS” (CHUGAI SEIYAKU KABUSHIKI KAISHA, priority 2022, dated 2024).

Experiments:
[1] = target: GDP-bound KRAS wild-type protein (Homo sapiens, UniProt P01116); test: Binding to KRAS by surface plasmon resonance (SPR), dissociation constant KD
How it was run: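 Each cycle, GDP-bound biotin-Avi RAS was captured (~100–300 RU), compound concentrations were injected low to high for 75 s each at 100 µL/min, then the chip was regenerated. Buffer: HBS pH 7.4, 10 mM MgCl2, 10 µM GDP, 1 mM DTT, 4% DMSO; 30°C. KD from a 1:1 binding model.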

[2] = target: GDP-bound NRAS wild-type protein (Homo sapiens, UniProt P01111); test: Binding to NRAS by surface plasmon resonance (SPR), KD and KD ratio to KRAS
How it was run: (§1)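 Affinity is measured by surface plasmon resonance at 30°C against captured, GDP-loaded RAS carrying a biotinylated Avi tag. Compounds are titrated by single-cycle kinetics, and KD comes from a 1:1 fit.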

HRAS wild-type protein = HRAS wild-type protein (Homo sapiens, UniProt P01112); test: Binding to HRAS by surface plasmon resonance (SPR), KD and KD ratio to KRAS
How it was run: as §1

[3] = tested on: human lung cancer strain NCI-H441; assay type: cell-based
How it was run: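 Readout: […] after the ATP-based reagent. Compound: serial dilutions in dimethyl sulfoxide.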

[4] = Single Cycle Kinetics, 1:1 binding model
[5] = ratio of KD for GDP-bound NRAS wild-type protein to KD for KRAS
[6] = ratio of KD for HRAS wild-type protein to KD for KRAS

Chain of GDP-bound NRAS wild-type protein (P01111 whole entry): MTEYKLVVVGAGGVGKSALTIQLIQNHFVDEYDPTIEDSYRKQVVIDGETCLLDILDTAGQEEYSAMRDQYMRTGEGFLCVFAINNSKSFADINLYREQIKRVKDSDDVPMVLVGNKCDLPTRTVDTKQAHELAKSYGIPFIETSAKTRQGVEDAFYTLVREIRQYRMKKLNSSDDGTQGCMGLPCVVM
Chain of GDP-bound KRAS wild-type protein (P01116 1-188 isoform P01116-2): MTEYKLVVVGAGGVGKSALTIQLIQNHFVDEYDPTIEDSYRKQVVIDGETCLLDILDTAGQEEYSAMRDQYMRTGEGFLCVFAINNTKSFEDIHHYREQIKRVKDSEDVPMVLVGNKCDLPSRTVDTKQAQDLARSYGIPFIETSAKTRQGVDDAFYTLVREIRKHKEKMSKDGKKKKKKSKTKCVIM
Chain of HRAS wild-type protein (P01112 whole entry): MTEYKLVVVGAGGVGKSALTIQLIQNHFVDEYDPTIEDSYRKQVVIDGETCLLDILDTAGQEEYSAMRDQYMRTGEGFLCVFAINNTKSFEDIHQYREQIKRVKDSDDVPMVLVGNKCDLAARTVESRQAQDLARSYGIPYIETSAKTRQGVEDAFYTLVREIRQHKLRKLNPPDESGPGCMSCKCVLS

Row | Compound | Kd [1, 4] [nM] | IC50 [3] [nM] | Kd ([1]; 1:1 binding model) [nM] | Kd ([1]; Single Cycle Kinetics) [nM] | NRAS /KRAS ([2]; ratio of KD value for GDP-bound NRAS wild-type protein to KD value for KRAS (SPR)) | HRAS /KRAS (HRAS wild-type protein; ratio of KD value for HRAS wild-type protein to KD value for KRAS (SPR)) | NRAS /KRAS [2, 5] | HRAS /KRAS (HRAS wild-type protein; [6]) | NRAS /KRAS ([2]; ratio of the KD value with respect to GDP-bound NRAS wild-type protein to the KD value with respect to KRAS) | HRAS /KRAS (HRAS wild-type protein; ratio of the KD value with respect to HRAS wild-type protein to the KD value with respect to KRAS)
1 | CCO[C@@H]1C[C@H]2C(=O)NC3(CCC3)C(=O)N(C)[C@@H](C3CCCC3)C(=O)N(C)[C@H](C(=O)N(CC)CC)CC(=O)N(C)[C@@H](CC(C)C)C(=O)N[C@@H]([C@@H](C)CC)C(=O)N(C)CC(=O)N(C)[C@H]3C/C=C\CCN(C3=O)[C@@H](Cc3ccc(C)cc3)C(=O)N(C)CC(=O)N[C@@H](CCc3ccc(C(F)(F)F)c(OC)c3)C(=O)N2C1 [PP1887] | 0.3 | 19.2 |  |  | A (a compound having 10 or more and less than 20 is denoted as A) | B (a compound having 3 or more and less than 10 is denoted as B) |  |  |  | 
2 | CCO[C@@H]1C[C@H]2C(=O)NC3(CCC3)C(=O)N(C)[C@@H](C3CCCC3)C(=O)N(C)[C@H](C(=O)N3CCOCC3)CC(=O)N(C)[C@@H](COCC(F)(F)F)C(=O)N[C@@H]([C@@H](C)CC)C(=O)N(C)CC(=O)N(C)[C@H]3CCCCCN(C3=O)[C@@H](Cc3ccc(C(F)(F)F)cc3)C(=O)N(C)CC(=O)N[C@@H](CCc3cc(F)c(C(F)(F)F)c(F)c3)C(=O)N2C1 [PP0853] |  | 24.3 |  | 0.67 |  |  | B (a compound having 3 or more and less than 10 is denoted as B) | B (a compound having 3 or more and less than 10 is denoted as B) |  | 
3 | CCO[C@@H]1C[C@H]2C(=O)NC3(CC(C)(C)C3)C(=O)N(C)[C@@H](C(CC)CC)C(=O)N(C)[C@H](C(=O)N(C)C)CC(=O)N(C)[C@H]3CC/C=C/c4ccc(cc4)C[C@@H](C(=O)N(C)CC(=O)N[C@@H](CCc4cc(F)c(C(F)(F)F)c(F)c4)C(=O)N2C1)N1CC/C=C\C[C@@H](C1=O)N(C)C(=O)CN(C)C(=O)[C@H]([C@@H](C)CC)NC3=O [PP2586] |  | 14.4 | 0.17 |  |  |  | A (a compound having 10 or more and less than 20 is denoted as A) | B (a compound having 3 or more and less than 10 is denoted as B) |  | 
4 | CCO[C@@H]1C[C@H]2C(=O)NC(C)(C)C(=O)N(C)[C@@H](C3CCCC3)C(=O)N(CC)[C@H](C(=O)N3CCOCC3)CC(=O)N(C)[C@@H](CC(C)C)C(=O)N[C@@H]([C@@H](C)CC)C(=O)N(C)CC(=O)N(C)[C@H]3CCCCCN(C3=O)[C@@H](Cc3ccc(C(F)(F)F)cc3)C(=O)N(C)CC(=O)N[C@@H](CCc3cc(F)c(C(F)(F)F)c(F)c3)C(=O)N2C1 [PP0958] |  | 1040 |  | 7.5 |  |  | B (a compound having 3 or more and less than 10 is denoted as B) | B (a compound having 3 or more and less than 10 is denoted as B) |  | 

Now from value to compound, other results behind:

Row | Kd [1, 4] [nM] | IC50 [3] [nM] | Kd ([1]; 1:1 binding model) [nM] | Kd ([1]; Single Cycle Kinetics) [nM] | Compound | NRAS /KRAS ([2]; ratio of KD value for GDP-bound NRAS wild-type protein to KD value for KRAS (SPR)) | HRAS /KRAS (HRAS wild-type protein; ratio of KD value for HRAS wild-type protein to KD value for KRAS (SPR)) | NRAS /KRAS [2, 5] | HRAS /KRAS (HRAS wild-type protein; [6]) | NRAS /KRAS ([2]; ratio of the KD value with respect to GDP-bound NRAS wild-type protein to the KD value with respect to KRAS) | HRAS /KRAS (HRAS wild-type protein; ratio of the KD value with respect to HRAS wild-type protein to the KD value with respect to KRAS)
5 |  | 22.7 | 0.3 |  | CCO[C@@H]1C[C@H]2C(=O)NC3(CCC3)C(=O)N(C)[C@@H](C3CCCC3)C(=O)N(C)[C@H](C(=O)N(C)CC)CC(=O)N(C)[C@@H](CC(C)C)C(=O)N[C@@H]([C@@H](C)CC)C(=O)N(C)CC(=O)N(C)[C@H]3C/C=C\CCN(C3=O)[C@@H](Cc3ccc(C(F)(F)F)cc3)C(=O)N(C)CC(=O)N[C@@H](CCc3ccc(Cl)c(Cl)c3)C(=O)N2C1 [PP2845] |  |  | AA (a compound having 20 or more is denoted as AA) | A (a compound having 10 or more and less than 20 is denoted as A) |  | 
6 |  | 3.7 | 0.12 |  | CC[C@H](C)[C@@H]1NC(=O)[C@@H]2CCCc3ccc(cc3)C[C@@H](C(=O)N(C)CC(=O)N[C@@H](CCc3ccc(C(F)(F)F)c(OC)c3)C(=O)N3C[C@H](OC(C)C)C[C@H]3C(=O)NC3(CC(C)(C)C3)C(=O)N(C)[C@@H](C3CCCC3)C(=O)N(C)[C@H](C(=O)N(C)CC)CC(=O)N2C)N2CC/C=C\C[C@@H](C2=O)N(C)C(=O)CN(C)C1=O [PP3084] |  |  | A (a compound having 10 or more and less than 20 is denoted as A) | B (a compound having 3 or more and less than 10 is denoted as B) |  | 
7 |  | 245 | 3.5 |  | C#CC[C@H]1C(=O)N[C@@H]([C@@H](C)CC)C(=O)N(C)CC(=O)N(C)[C@H]2C/C=C\CCN(C2=O)[C@@H](Cc2ccc(C(F)(F)F)cc2)C(=O)N(C)CC(=O)N[C@@H](CCc2ccc(C(F)(F)F)c(OC)c2)C(=O)N2C[C@H](F)C[C@H]2C(=O)NC2(CC(C)(C)C2)C(=O)N(C)[C@@H](CCC=C)C(=O)N(C)[C@H](C(=O)N2CCCC2)CC(=O)N1C [PP3132] |  |  | A (a compound having 10 or more and less than 20 is denoted as A) | A (a compound having 10 or more and less than 20 is denoted as A) |  | 
8 | 0.37 | 21.8 |  |  | CC[C@H](C)[C@@H]1NC(=O)[C@H](CC(C)C)N(C)C(=O)C[C@@H](C(=O)N2CCOCC2)N(C)C(=O)[C@H](C2CCCC2)N(C)C(=O)C2(CCCC2)NC(=O)[C@@H]2CCCN2C(=O)[C@H](CCc2ccc(C(F)(F)F)c(Cl)c2)NC(=O)CN(C)C(=O)[C@H](Cc2ccccc2)N2CC=CC[C@@H](C2=O)N(C)C(=O)CN(C)C1=O [PP0528] |  |  |  |  | C (A compound having a KD ratio of 0.1 or more and less than 3 is denoted as C) | C (A compound having a KD ratio of 0.1 or more and less than 3 is denoted as C)
